In patent publication US11028137B2, “Mutant islet amyloid polypeptides with improved solubility and methods for using the same” (priority 2017, dated 2021):
Where a SMILES comes first, the peptide text is derived from it.

Assays:
[1] = Thioflavin-T fluorescence assay of amyloid formation kinetics; type: physicochemical; conditions: 16 μM peptide, 10 mM PBS pH 7.4, 25° C., no stirring; 1 week and 6 week incubations
Procedure: Sample Preparation. Each peptide was dissolved into 100% hexafluoroisoproponal (HFIP) to make a 0.5 mM stock solution. Stock solutions were filtered using […] Acrodisc syringe filter with a GHP membrane and the required amount of peptide was lyophilized overnight to remove HFIP. Dry peptide was dissolved into the appropriate buffer for the fluorescence assays. Fluorescence Assays. Thioflavin-T binding assays, conducted without HFIP or stirring at 25° C., were utilized to monitor amyloid formation kinetics. Fluorescence measurements were performed using a Spectramax Gemini EM plate reader. Corning 96-well non-binding surface black plates with lids were used and were sealed with polyethylene sealing tape. Samples were prepared by dissolving dry peptide into 10 mM PBS buffer (pH 7.4) and 32 μM thioflavin-T solution immediately before the measurement. Thioflavin-T fluorescence was measured with 450 nm excitation and emission at 485 nm was monitored. The final concentrations were 16 μM peptides. After creating the mutant-hIAPP polypeptides of the present disclosure, applicants tested the propensity of the different analogs to form amyloid at pH 7.4 using thioflavin-T fluorescence assays (FIGS. 2A-D) and TEM (FIGS. 3A-E). […] Amyloid formation follows a sigmoidal time course consisting of a lag phase in which few, if any, fibrils are formed, followed by a growth phase and a saturation phase in which amyloid fibrils are in equilibrium with soluble peptide.

[2] = Transmission electron microscopy (TEM) of amyloid aggregates; type: physicochemical; conditions: after 7 days of incubation, end of kinetic experiment
Procedure: Transmission Electron Microscopy (TEM). TEM images were recorded using an FEI Bio TwinG^2 Transmission Electron Microscope at the central microscopy center at Stony Brook University. 15 μL aliquots of the samples used for fluorescence assays were removed at the end of each kinetic experiment, blotted on a carbon formvar-coated 300-mesh copper grid for 1 min and then negatively stained with saturated uranyl acetate for 1 min. Images were taken at a 68,000× magnification and 100 nm under focus. Mutant-hIAPP polypeptides of the present disclosure were further analyzed using TEM. […] In contrast, no amyloid fibrils were formed after a 1 week (FIGS. 3B-E, left) or 6 week (FIGS. 3B-E, right) culture with the any of the mutant-hIAPP analogs tested.

[3] = target: T1, human amylin receptor (hAMY1(a)) (Homo sapiens, UniProt O60894+P30988); assay: cAMP production (LANCE cAMP assay) in transfected Cos-7 cells; type: cell-based; conditions: Cos-7 cells expressing hAMY1(a); for EC50: cAMP production, mean ± spread, read-out: Human Amylin1(a) receptor binding data pEC50 (converted)
T1 construct: expressed in transfected cells; host or cells: Cos-7 cells, transient transfection with PEI, pcDNA3.1 vectors
T1 sequence (O60894 27-148 partner, one chain of several): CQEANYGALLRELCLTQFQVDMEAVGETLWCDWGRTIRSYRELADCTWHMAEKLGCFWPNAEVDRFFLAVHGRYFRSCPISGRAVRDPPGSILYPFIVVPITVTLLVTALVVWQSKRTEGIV
Procedure: (§1) Cell Culture and Transfection. Cos-7 cells were cultured and transfected for receptor activity assays as previously described in Bailey, R. J., and Hay, D. L. Peptides (2006) 27, pp. 1367-1375, the entire contents of which is incorporated herein by reference. Specifically, cells were cultured in Dulbucco's modified eagle medium (DMEM) with 8% heat-inactivated fetal bovine serum (FBS) and kept in a 37° C. humidified 95% air/5% CO2 incubator. Cells were plated at a density of 18,000-20,000 cells/well (depending on cell passage) in 96-well culture plate and returned to the incubator for approximately 18-24 hours. Transient transfections were carried out using polyethyleneimine (PEI) as described previously and maintained at 37° C. in a humidified 95% air/5% CO2 incubator for 36-48 hours. All DNA constructs used in this these were in pcDNA3.1 vectors.
(§2) cAMP Assay: Measurement of intracellular cAMP was achieved using a time-resolved fluorescent resonance energy transfer assay (LANCE cAMP assay, PerkinElmer), similar to the previously described Alphascreen assay as described in Gingell, J. J., et al. Peptides (2010) 31, pp. 1400-1404, with the following changes. Following stimulation with peptide agonist, cAMP assay media from the wells was thoroughly aspirated and 50 μl of ice-cold absolute ethanol added to each well. Plates were then placed in a −30° C. freezer for 10 minutes or overnight prior to assay, then removed and allowed to air dry in a fume hood for 1-2 hours. After ethanol evaporated from the plates, 50 μl of LANCE detection buffer (lysis buffer, 0.35% Triton X-100, 50 mM HEPES and 10 mM calcium chloride in ddH2O, pH 7.4) was added per well and left on a plate shaker for 10-15 minutes at room temperature. Meanwhile, a cAMP standard curve was generated using LANCE detection buffer and a serially diluted cAMP standard (50 μM) ranging from 1 μM to 10 pM. The serially diluted cAMP standards (5 μl) and cell lysates (5 μl) were transferred into 384-well opti-plates and sealed with a Sealplate®-A-384-well microplate adhesive film and briefly centrifuged (10 seconds, 500 rpm, 23° C.). A 1:200 dilution of LANCE assay Alexa Fluor® 647 anti-cAMP antibody was prepared in detection buffer and 5 μl added to each well. Plates were sealed and briefly centrifuged again (10 seconds, 500 rpm, 23° C.) and left to incubate, sealed for 30 minutes at room temperature. During this incubation, detection mix was made up consisting of detection buffer, Europium-W8044 labelled streptavidin (1:4500) and biotin-cAMP (1:1500). After 30 minutes incubation, 10 μl of detection mix was added to each well, plates were centrifuged (30 seconds, 500 rpm, 23° C.), sealed and left to incubate for 1 hour at room temperature. Plates were read after an overnight incubation on an Envision plate reader. A standard curve was included in each experiment to ensure accurate quantification of cAMP.
(§3) Data Analysis for Receptor Assays: Data were derived from independent experiments for statistical analysis and all experiments were performed and replicated. Quantification of cAMP was obtained from a standard curve included in each experiment and plotted using the software GraphPad Prism 6.0 (GraphPad Software Inc, San Diego, Calif., USA) with a non-linear regression 3-parameter logistic equation with a Hill Slope of 1 to determine the pEC50. The pEC50 values from the fits were combined from different experimental days and statistically tested for difference from the WT peptide using the Student's t-test with statistical significance defined as * p<0.05, ** p<0.01, *** p<0.001. Due to variability in amount of cAMP produced between experimental days, data were normalized to the control peptide for each experiment to obtain Emax values. For each analogue, data were normalized to the maximum (Emax) and minimum (Emin) responses of h-amylin. […]

[4] = target: T2, human calcitonin receptor (hCT(a)) (Homo sapiens, UniProt P30988); assay: as above; type: cell-based; conditions: Cos-7 cells expressing hCT(a); for EC50: cAMP production, mean ± spread, read-out: Human calcitonin receptor binding data pEC50 (converted)
T2 construct: expressed in transfected cells; host or cells: Cos-7 cells, transient transfection with PEI, pcDNA3.1 vectors
T2 sequence (P30988 25-474): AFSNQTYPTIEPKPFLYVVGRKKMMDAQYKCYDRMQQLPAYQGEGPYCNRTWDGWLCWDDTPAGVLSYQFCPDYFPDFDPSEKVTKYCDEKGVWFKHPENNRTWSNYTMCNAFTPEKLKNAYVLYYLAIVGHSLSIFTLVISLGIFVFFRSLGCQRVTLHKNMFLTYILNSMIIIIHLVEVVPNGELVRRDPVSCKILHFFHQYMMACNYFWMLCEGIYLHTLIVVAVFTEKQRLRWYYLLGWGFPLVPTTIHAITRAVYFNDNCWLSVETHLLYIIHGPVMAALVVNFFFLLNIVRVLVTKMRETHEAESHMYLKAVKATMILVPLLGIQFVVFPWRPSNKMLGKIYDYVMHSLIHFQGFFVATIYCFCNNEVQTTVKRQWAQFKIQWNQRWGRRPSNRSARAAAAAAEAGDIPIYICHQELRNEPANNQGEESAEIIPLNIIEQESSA
Procedure: as §1, §2, §3

[5] = pH 7.4
Procedure: Dry peptides were dissolved into 10 mM PBS buffer at pH 7.4 at different initial concentrations, and were incubated for 7 days at 25° C. without stirring. Each sample was then centrifuged using a Beckman Coulter Microfuge 22R Centrifuge at 24° C. for 20 min. The relative centrifugal force used was 1.75×10^4 g. Solubility of each sample was approximated by measuring the absorbance of the corresponding supernatant at 280 nm measured using a Beckman Coulter DU 730 UV/Vis Spectrophotometer.
Each peptide tested was incubated in 10 mM PBS buffer at pH 7.4 for 7 days at three different concentrations (100 μM, 500 μM and 1 mM) and the solution was then centrifuged. The apparent solubility was represented by the absorbance of the supernatant of each sample measured at 280 nm. The extinction coefficients of all polypeptides are very similar at 280 nm since they all contain the same aromatic residues and each contains a disulfide bond. […] A peptide which is soluble at 1 mM and above will show a linear dependence of absorbance on initial concentration. A peptide which is less soluble will deviate from linearity. The peptides were centrifuged after 7 days and their apparent solubility measured by measuring the absorbance at 280 nm of the supernatant of each solution. The apparent concentration refers to the concentration which would be obtained if all of the peptide dissolved. The absorbance of the supernatant is directly proportion to the amount of peptide in solution.

[6] = pH 7
Procedure: 100 μL each solution was obtained immediately following dissolution with Novolin-N® and was centrifuged using a Beckman Coulter Microfuge (22R Centrifuge) at 24° C. for 20 minutes. The relative centrifugal force used was 1.75×104 g. Aliquots of each sample were immediately frozen and lyophilized. The remaining portion of each sample was not centrifuged and were incubated at 25° C. without stirring. Samples were collected again following the same procedures after 1 day, 7 days and 30 days. Dry samples were redissolved in 4:1 HPLC buffer mix (4A:1B, below) and immediately injected for liquid chromatography-mass spectroscopy (LC-MS) measurements. The HPLC buffers were (A) H2O (0.1% acetic acid and 0.02% TFA) and (B) CH3CN (0.1% acetic acid and 0.02% TFA). Solubility of each co-formulated sample was determined by measuring the absorbance from the liquid chromatogram traces at 215±8 nm and at 277±8 nm at each time point tested. points (0 hours, 24 hours, 7 days and 30 days post-formulation).

| Structure (SMILES) | amyloid formation monitored by thioflavin-T fluorescence [1] | amyloid aggregates in TEM images [2] | concentration-response of cAMP production compared with wild-type hIAPP [3] | EC50 [3] [nM] | concentration-response of cAMP production compared with wild-type hIAPP [4] | EC50 [4] [nM] | solubility at neutral pH (absorbance of supernatant at 280 nm) [5] | solubility co-formulated with Novolin-N (absorbance at 215 nm and 277 nm, LC-MS) [6] |
| --- | --- | --- | --- | --- | --- | --- | --- | --- |
| CC(C)C[C@H](NC(=O)[C@H](CCCNC(=N)N)NC(=O)[C@H](CCC(N)=O)NC(=O)[C@@H](NC(=O)[C@H](C)NC(=O)[C@@H]1CSSC[C@H](NC(=O)[C@@H](N)CCCCN)C(=O)N[C@@H](CC(N)=O)C(=O)N[C@@H]([C@@H](C)O)C(=O)N[C@@H](C)C(=O)N[C@@H]([C@@H](C)O)C(=O)N1)[C@@H](C)O)C(=O)N[C@@H](C)C(=O)N[C@@H](CC(N)=O)C(=O)N[C@@H](Cc1ccccc1)C(=O)N[C@@H](CC(C)C)C(=O)N[C@H](C(=O)N[C@@H](Cc1c[nH]cn1)C(=O)N[C@@H](CO)C(=O)N[C@@H](CO)C(=O)N[C@@H](CC(N)=O)C(=O)N[C@@H](CCCCN)C(=O)N[C@@H](Cc1ccccc1)C(=O)N1CCC[C@H]1C(=O)N[C@@H](C)C(=O)N1CCC[C@H]1C(=O)N[C@@H](CC(C)C)C(=O)N[C@@H](CO)C(=O)N[C@@H](CO)C(=O)N[C@H](C(=O)N[C@@H](CCCCN)C(=O)N[C@H](C(=O)NCC(=O)N[C@@H](CO)C(=O)N[C@@H](CC(N)=O)C(=O)N[C@H](C(=O)N[C@@H](Cc1ccc(O)cc1)C(N)=O)[C@@H](C)O)C(C)C)[C@@H](C)O)C(C)C [SEQ ID NO: 10] (HELM PEPTIDE1{K.C.N.T.A.T.C.A.T.Q.R.L.A.N.F.L.V.H.S.S.N.K.F.P.A.P.L.S.S.T.K.V.G.S.N.T.Y.[am]}$PEPTIDE1,PEPTIDE1,2:R3-7:R3$$$V2.0) | none of the mutant hIAPP polypeptides forms amyloid | no aggregates are observed | do not significantly alter amylin or calcitonin receptor activity | 3.39 | do not significantly alter amylin or calcitonin receptor activity | 5.01 | more substantially soluble than wild-type hIAPP | significantly higher absorbance when compared to both wild-type hIAPP and paramlintide |
| CC[C@H](C)[C@H](NC(=O)[C@H](C)NC(=O)CNC(=O)[C@H](Cc1ccccc1)NC(=O)[C@H](CCCCN)NC(=O)[C@H](CC(N)=O)NC(=O)[C@H](CO)NC(=O)[C@H](CO)NC(=O)[C@H](Cc1c[nH]cn1)NC(=O)[C@@H](NC(=O)[C@H](CC(C)C)NC(=O)[C@H](Cc1ccccc1)NC(=O)[C@H](CC(N)=O)NC(=O)[C@H](C)NC(=O)[C@H](CC(C)C)NC(=O)[C@H](CCCNC(=N)N)NC(=O)[C@H](CCC(N)=O)NC(=O)[C@@H](NC(=O)[C@H](C)NC(=O)[C@@H]1CSSC[C@H](NC(=O)[C@@H](N)CCCCN)C(=O)N[C@@H](CC(N)=O)C(=O)N[C@@H]([C@@H](C)O)C(=O)N[C@@H](C)C(=O)N[C@@H]([C@@H](C)O)C(=O)N1)[C@@H](C)O)C(C)C)C(=O)N[C@@H](CC(C)C)C(=O)N1CCC[C@H]1C(=O)N[C@@H](CO)C(=O)N[C@H](C(=O)N[C@@H](CCCCN)C(=O)N[C@H](C(=O)NCC(=O)N[C@@H](CO)C(=O)N[C@@H](CC(N)=O)C(=O)N[C@H](C(=O)N[C@@H](Cc1ccc(O)cc1)C(N)=O)[C@@H](C)O)C(C)C)[C@@H](C)O [SEQ ID NO: 22] (HELM PEPTIDE1{K.C.N.T.A.T.C.A.T.Q.R.L.A.N.F.L.V.H.S.S.N.K.F.G.A.I.L.P.S.T.K.V.G.S.N.T.Y.[am]}$PEPTIDE1,PEPTIDE1,2:R3-7:R3$$$V2.0) | none of the mutant hIAPP polypeptides forms amyloid | no aggregates are observed | do not significantly alter amylin or calcitonin receptor activity | 0.372 | do not significantly alter amylin or calcitonin receptor activity | 2.82 | more substantially soluble than wild-type hIAPP | significantly higher absorbance when compared to both wild-type hIAPP and paramlintide |
